Data taken from ChEMBL document CHEMBL5244243, “Novel strategies targeting bromodomain-containing protein 4 (BRD4) for cancer drug discovery” (Eur J Med Chem, 2020).
Blank lines part the entries; values can stand above or below the molecule they belong to.

Legend:
[1] = molecular target: T1, Bromodomain-containing protein 4 (Homo sapiens, UniProt O60885); assay: Inhibition of human full length BRD4
[2] = molecular target: T1, Bromodomain-containing protein 4; assay: Induction of BRD4 degradation in human MV4-11 cells at 100 nM measured after 18 hrs relative to control; assay type: cell-based
[3] = molecular target: T1, Bromodomain-containing protein 4; assay: Inhibition of BRD4 (unknown origin) BD1 domain
Histone deacetylase = assay: Inhibition of HDAC (unknown origin); assay type: protein assay, Homo sapiens
[4] = molecular target: T1, Bromodomain-containing protein 4; assay: Induction of BRD4 (unknown origin) degradation at 100 nM relative to control
[5] = molecular target: T1, Bromodomain-containing protein 4; assay: Inhibition of BRD4 (unknown origin) BD1 domain incubated for 18 hrs
MV4-11 = assay: Antitumor activity against human MV4-11 cells xenografted in mouse assessed as TGI at 1 mg/kg, po measured after 7 days relative to control; assay type: functional; settings: MV4-11, 168 h, time 7 day, read-out: TGI

- IC50 [1]: 5 nM
SMILES: Cc1noc(C)c1-c1ccc2c(c1)c(Cc1ccc(F)cc1)cn2CCCCCCC(=O)NO

- Activity [2]: 87%
SMILES: Cc1sc2c(c1C)C(c1ccc(Cl)cc1)=N[C@@H](CC(=O)NCCCCNC(=O)COc1cccc3c1C(=O)N(C1CCC(=O)NC1=O)C3=O)c1nnc(C)n1-2 (some centres not stated)

SMILES: Cc1sc2c(c1C)C(c1ccc(Cl)cc1)=N[C@@H](CC(=O)Nc1ccc(C(=O)NO)cc1)c1nnc(C)n1-2
- IC50 [3]: 11 nM
- IC50 (Histone deacetylase): 21 nM

- Activity [4]: 90%
SMILES: Cc1ncsc1-c1ccc(CNC(=O)[C@@H]2C[C@@H](O)CN2C(=O)C(NC(=O)COCCOCCOCCNC(=O)C[C@@H]2N=C(c3ccc(Cl)cc3)c3c(sc(C)c3C)-n3c(C)nnc32)C(C)(C)C)cc1 (some centres not stated)

SMILES: COc1nnc2ccc(N3CCC(c4ccc(OCCN5CCN(C)C(=O)[C@H]5C)cc4)CC3)nn12 [AZD-5153]
- IC50 [5]: 1.6 nM
- inhibition in vivo at 1 mg/kg (MV4-11): 72%
